Literature values as cited in US11931369B1, “Compositions and methods for treating epilepsy” (POVIVA CORP, priority 2023, dated 2024).
Where two headings read alike, the source gives them in different places.

In the case of `C=C(C)[C@@H]1CCC(C)=C[C@H]1c1c(O)cc(CCCCC)cc1O` [Cannabidiol, 2-[(1R,6R)-6-Isopropenyl-3-methylcyclohex-2-en-1-yl]-5-pentylbenzene-1,3-diol], the “Plasma concentration on Day 22 at target CBD dose, 5 hours, Mean” value (5 mg/kg/day (N = 10)) is given as 72.1 ng/mL, the “Plasma concentration on Day 22 at target CBD dose, Pre-dose, Mean” value (5 mg/kg/day (N = 10)) is given as 23.0 ng/mL and the “Plasma concentration on Day 22 at target CBD dose, […], Mean” value (5 mg/kg/day (N = 10)) is given as 130 ng/mL. For the same compound, the “Plasma concentration on Day 1 at starting CBD dose, 5 hours, Mean” value (5 mg/kg/day group (N = 10)) was 10.0 ng/mL, the “Plasma concentration on Day 1 at starting CBD dose, Pre-dose, Mean” value (5 mg/kg/day group (N = 10)) was 0 ng/mL and the “Plasma concentration on Day 1 at starting CBD dose, […], Mean” value (5 mg/kg/day group (N = 10)) was 37.6 ng/mL. For the same compound, the “Plasma concentration on Day 22 at target CBD dose, 5 hours, Mean” value (10 mg/kg/day (N = 8)) was 288 ng/mL, the “Plasma concentration on Day 22 at target CBD dose, Pre-dose, Mean” value (10 mg/kg/day (N = 8)) was 62.1 ng/mL and the “Plasma concentration on Day 22 at target CBD dose, […], Mean” value (10 mg/kg/day (N = 8)) was 242 ng/mL. For the same compound, the “Plasma concentration on Day 1 at starting CBD dose, 5 hours, Mean” value (10 mg/kg/day group (N = 8)) was 11.3 ng/mL, the “Plasma concentration on Day 1 at starting CBD dose, Pre-dose, Mean” value (10 mg/kg/day group (N = 8)) was 0 ng/mL and the “Plasma concentration on Day 1 at starting CBD dose, […], Mean” value (10 mg/kg/day group (N = 8)) was 34.4 ng/mL. For the same compound, the “Plasma concentration on Day 22 at target CBD dose, 5 hours, Mean” value (20 mg/kg/day (N = 9)) was 308 ng/mL, the “Plasma concentration on Day 22 at target CBD dose, Pre-dose, Mean” value (20 mg/kg/day (N = 9)) was 121 ng/mL and the “Plasma concentration on Day 22 at target CBD dose, […], Mean” value (20 mg/kg/day (N = 9)) was 380 ng/mL. The “Plasma concentration on Day 1 at starting CBD dose, 5 hours, Mean” value (20 mg/kg/day group (N = 9)) was 25.3 ng/mL, the “Plasma concentration on Day 1 at starting CBD dose, Pre-dose, Mean” value (20 mg/kg/day group (N = 9)) was 0 ng/mL and the “Plasma concentration on Day 1 at starting CBD dose, […], Mean” value (20 mg/kg/day group (N = 9)) was 29.3 ng/mL.
